Test results from US20100093655A1 (priority 2007, published 2010).
Like-named read-outs stand apart in the source and are kept apart here. Marks after values point to notes of the source that are not given here.

Assays:
[1] = test system: lymphocytes of patients suffering from AIDS; assay type: cell-based, human; settings: for Cell survival rate (×100%): day 18 vs day 12
[2] = test system: lymphocytes of patients suffering from AIDS; assay type: cell-based, human; settings: after 6 days (day 12-18)
HIV-1 = settings: for Viral RNA Number of copies/ml: after 6 days (day 12-18); for viral RNA expressed, more than the control: patient two, no therapy
HIV-1 proviral DNA = assay: Proviral DNA, modified Muprovama test; settings: for Proviral DNA Number of copies/10^6 cells: after 6 days (day 12-18); for Log of proviral HIV DNA: riluzole 0.1 μM (+), mean ± S.D.
[3] = test system: lymphocytes of a patient suffering from AIDS; assay: Apoptosis test (annexin V / propidium iodide, flow cytometry); assay type: cell-based, human; settings: after 13 days; 10^-7-10^-8 M
Method: The apoptotic cells were measured using propidium iodide and FITC-labeled annexin V, which is a phospholipid-binding protein that binds preferentially to the phosphatidylserine exposed at the surface of the cells in the initial phase of apoptosis, by means of a commercially available kit (Immunotech, Marseille, France). The cells that were propidium-iodide-negative and annexin-V-positive were identified as being apoptotic cells, whereas those that were positive for both propidium iodide and annexin V were considered to be pre-necrotic cells. […] Counting of T cells having CD4+ and CD8+ phenotypes, of the Ki-67 activation marker and of annexin V was carried out by flow cytometry analysis (FACScan, Becton Dickenson, San José, Calif., USA). A series of monoclonal antibodies directed against the following surface markers of T cells was used: CD4-PerCP, CD8-PE (Becton Dickinson, France), Ki-67-FITC (Pharmingen, Los Angeles, Calif., USA), Annexin-FITC (Immunotech, Marseille, France).

Ki-67 antigen = assay: Expression of the Ki-67 antigen (flow cytometry); assay type: cell-based, human
FAS (CD95/APO-1) = assay: Apoptosis induced by the anti-FAS antibody (annexin V expression); assay type: cell-based, human; settings: lymphocytes of patient two
Method: The apoptotic cells were measured using propidium iodide and FITC-labeled annexin V, which is a phospholipid-binding protein that binds preferentially to the phosphatidylserine exposed at the surface of the cells in the initial phase of apoptosis, by means of a commercially available kit (Immunotech, Marseille, France). The cells that were propidium-iodide-negative and annexin-V-positive were identified as being apoptotic cells, whereas those that were positive for both propidium iodide and annexin V were considered to be pre-necrotic cells. The apoptosis caused by the anti-FAS monoclonal antibody (CD95/APO-1) (Immunotech, Marseille, France) was thus measured since it is well known that Fas/Fas ligand apoptosis is amplified in AIDS disease.
Counting of T cells having CD4+ and CD8+ phenotypes, of the Ki-67 activation marker and of annexin V was carried out by flow cytometry analysis (FACScan, Becton Dickenson, San José, Calif., USA). A series of monoclonal antibodies directed against the following surface markers of T cells was used: CD4-PerCP, CD8-PE (Becton Dickinson, France), Ki-67-FITC (Pharmingen, Los Angeles, Calif., USA), Annexin-FITC (Immunotech, Marseille, France).
As indicated above, it is well established that the lymphocytes of HIV-1-infected patients are sensitive to apoptosis induced by the expression of FAS (CD95/APO-1) and of its agonist, the anti-FAS antibody.

IL-15 gene = assay: Detection of cytokines by real-time PCR; assay type: cell-based; settings: real-time PCR (FIG. 8)
Method: (§1) Using real-time PCR, 2 μg of total RNA is first reverse-transcribed by means of a kit (High Capacity cDNA Archive kit PN: 4322171, Applied Biosystems, Foster City, Calif.) using random primers and the MultiScribe RT enzyme (5 U/μl) for 2 hours at 37° C. The method of labeling with a SYBR Green, a fluorescent molecule which intercalates into the minor groove of the double helix, was used. The reaction is carried out using a thermocycler (ABI prism 7900 HT, Applied Biosystems, Foster City, Calif.). Each point studied was composed of 5 μl of SYBR Green PCR Master Mix (PN:4344463; Applied Biosystems, Foster City, Calif.), 0.3 μl of sense and antisense primer at a concentration of 10 μM (Proligo), 3.4 μl of Rnase-free water and 1 μl of cDNA. After a denaturation step at 95° C. for 15 min, the amplification is carried out after 40 cycles at 95° C. for 15 s, 60° C. for 30 s and 72° C. for 30 s. At the end of the PCR, a dissociation step corresponding to the amplification peak, which takes place in a cycle of 95° C. for 15 s, 60° C. for 15 s and 95° C. for 15 s, verifies the validity of the primers. The primers for all the genes studied were chosen according to the Oligo Explorer 1.1 amplification conditions. The samples were studied in duplicate in the presence of a negative control, composed of Master Mix and the primers, but without the cDNA. Glyceraldehyde phosphate dehydrogenase (GAPDH) was used as endogenous control gene.
(§2) The effect of the treatments on the levels of mRNA of interest is studied using the method of comparison of CTs (Peinnequin et al., 2004) or number of cycles necessary to reach a threshold fluorescence value (software SDS 2.1, AB prism).
(§3) The sequences of the primers used are the following (Proligo LLC, Boulder, Colo., USA) (forward-reverse): […]

Toll receptor 3 gene = assay: Detection of cytokines by real-time PCR; assay type: cell-based; settings: real-time PCR (FIG. 8)
Method: as §1, §2, §3

interferon-α gene = assay: Detection of cytokines by real-time PCR; assay type: cell-based; settings: real-time PCR (FIG. 8)
Method: as §1, §2, §3

interferon-β gene = assay: Detection of cytokines by real-time PCR; assay type: cell-based; settings: real-time PCR (FIG. 8)
Method: as §1, §2, §3

IL-15 = assay: Measurement of interleukin-15 production (ELISA of supernatant); assay type: cell-based; settings: riluzole 10^-8 M, culture supernatant, without riluzole 1
[4] = test system: TG 180 line (Crocker sarcoma tumor); assay: Inhibition of tumor cell proliferation (3H thymidine incorporation); assay type: cell-based; settings: 120 h, 5 days (FIG. 9a)
Description: (§4) After 5 days, the proliferation of the cells is estimated by tritiated (3H) thymidine incorporation. Other tumor lines were used, namely the H9 line (T lymphoma), the NB4 line (line derived from an acute promyelocytic leukemia) and the Jurkat line (T-lymphoma-derived lymphoblastic T cell line).

H9 line = assay: Inhibition of tumor cell proliferation; assay type: cell-based; settings: H9 line (FIG. 9d)
Description: as §4

Jurkat line = assay: Inhibition of tumor cell proliferation; assay type: cell-based; settings: Jurkat line (FIG. 9b)
Description: as §4

NB4 line = assay: Inhibition of tumor cell proliferation; assay type: cell-based; settings: NB4 line (FIG. 9c)
Description: as §4

Q: Which results are given for `Cc1cn([C@H]2C[C@H](N=[N+]=[N-])[C@@H](CO)O2)c(=O)[nH]c1=O` [AZT]?
A: effect on proliferation of the control cells ([1]; AZT 10 μg/ml): suppressor (antiproliferative) effect; Cell survival rate (×100%) ([1]; Individual AR, AZT 1 μg/ml): 5 ×100%; Cell survival rate (×100%) ([1]; Individual AR, AZT 10 μg/ml): 4 ×100%; Cell survival rate (×100%) ([1]; Individual PE, AZT 10 μg/ml): 3 ×100%; Cell survival rate (×100%) ([1]; Individual PR, AZT 1 μg/ml): 12 ×100%; Cell survival rate (×100%) ([1]; Individual PR, AZT 10 μg/ml): 13 ×100%; Cell survival rate (×100%) ([1]; Individual beta, AZT 1 μg/ml): 3 ×100%; Viability % dead cells ([2]; Individual AR, AZT 1 μg/ml): 28%; Viability % dead cells ([2]; Individual AR, AZT 10 μg/ml): 25%; Viability % dead cells ([2]; Individual PR, AZT 1 μg/ml): 19%; Viability % dead cells ([2]; Individual PR, AZT 10 μg/ml): 20%; Viability % dead cells ([2]; Individual beta, AZT 1 μg/ml): 29%; Viability % dead cells ([2]; Individual beta, AZT 10 μg/ml): 20%; antiviral effect on the control cells (HIV-1; AZT 1 μg/ml): partial, or even equivalent; antiviral effect (HIV-1; AZT 10 μg/ml): exerts an antiviral effect; Viral RNA Number of copies/ml (HIV-1; Individual AR, AZT 1 μg/ml): 35 000 copies/ml; Viral RNA Number of copies/ml (HIV-1; Individual AR, AZT 10 μg/ml): <100 copies/ml; Viral RNA Number of copies/ml (HIV-1; Individual PR, AZT 1 μg/ml): 7000 copies/ml; Viral RNA Number of copies/ml (HIV-1; Individual PR, AZT 10 μg/ml): <100 copies/ml; Proviral DNA Number of copies/10^6 cells (HIV-1 proviral DNA; Individual AR, AZT 1 μg/ml): 6.1 Log copies/10^6 cells; Proviral DNA Number of copies/10^6 cells (HIV-1 proviral DNA; Individual AR, AZT 10 μg/ml): 5.4 Log copies/10^6 cells; Proviral DNA Number of copies/10^6 cells (HIV-1 proviral DNA; Individual PR, AZT 1 μg/ml): 4.9 Log copies/10^6 cells; Proviral DNA Number of copies/10^6 cells (HIV-1 proviral DNA; Individual PR, AZT 10 μg/ml): 4.8 Log copies/10^6 cells

Q: `Nc1nc2ccc(OC(F)(F)F)cc2s1` [riluzole, 6-(trifluoromethoxy)-2-aminobenzothiazole] was tested. Which “inhibition of apoptosis of CD4 lymphocytes” value [3] did it give?
A: The value was 80%.

Q: What about the “inhibition of apoptosis of CD8 lymphocytes” value [3] of the same compound?
A: The value was 70%.

Q: And the “inhibition of total apoptosis expressed by all the lymphocytes” value [3]?
A: Its value is 66%.

Q: What about the “inhibition of Ki-67 antigen expression by all of the lymphocytes” value (Ki-67 antigen; after 13 days in the presence of riluzole (FIG. 6A)) of the same compound?
A: The value was about 33%.

Q: What about the “inhibition of Ki-67 antigen expression by the CD8 lymphocytes” value (Ki-67 antigen; after 13 days in the presence of riluzole (FIG. 6B)) of the same compound?
A: The value was about 37%.

Q: And the “inhibition of Ki-67 antigen expression by the CD4 lymphocytes” value (Ki-67 antigen; after 13 days in the presence of riluzole (FIG. 6C))?
A: The value was about 50%.

Q: And the inhibition at 0.01 µM (FAS (CD95/APO-1); Homo sapiens, Lymphocyte, 10^-8 M)?
A: Its inhibition at 0.01 µM is 62%.

Q: What about the “apoptosis (annexin V expression) of cells coupled to anti-FAS antibody” value (FAS (CD95/APO-1); 10^-8 M, control 50%) of the same compound?
A: Its value is 15%.

Q: What about the “percentage inhibition of apoptosis, cells cultured without anti-FAS antibody” value (FAS (CD95/APO-1); compared with the 62% inhibition with antibody) of the same compound?
A: The value was “comparable”.

Q: What about the “expression of the IL-15 gene” value (IL-15 gene) of the same compound?
A: Its value is “capable of inducing the expression”.

Q: And the “expression of the Toll receptor 3 gene” value (Toll receptor 3 gene)?
A: The value was “capable of inducing the expression”.

Q: What about the “expression of the interferon-α gene” value (interferon-α gene) of the same compound?
A: The value was “capable of inducing the expression”.

Q: What about the “expression of the interferon-β gene” value (interferon-β gene) of the same compound?
A: Its value is “capable of inducing the expression”.

Q: And the “production of IL-15” value (IL-15)?
A: The value was 6 pg/mL.

Q: What about the “production of IL-15” value (IL-15; listed as Riluzole) of the same compound?
A: Its value is 15* pg/ml.

Q: What about the inhibition at 100 µM ([4]; 10^-4 M) of the same compound?
A: Its inhibition at 100 µM is 86%.

Q: What about the inhibition at 10 µM ([4]; 10^-5 M (first mention)) of the same compound?
A: The inhibition at 10 µM was 40%.

Q: And the inhibition at 10 µM ([4]; 10^-5 M (second mention))?
A: The inhibition at 10 µM was 30%.

Q: And the “inhibition of the proliferation of tumor cells” value (“inhibition … of tumor cells” below) (H9 line)?
A: The value was “inhibition of the proliferation of these tumor cells is also observed”.

Q: And the “inhibition … of tumor cells” value (Jurkat line)?
A: The value was “inhibition of the proliferation of these tumor cells is also observed”.

Q: And the “inhibition … of tumor cells” value (NB4 line)?
A: The value was “inhibition of the proliferation of these tumor cells is also observed”.

Q: What about the “virus measurement versus control” value (HIV-1; patient one, 10^-7 M, days 3 and 6 of culture) of the same compound?
A: The value was “virtually the same”.

Q: What about the “HIV-1 RNA of conditioned cultures versus controls” value (HIV-1; patient one, 10^-7 M, days 10 and 13 (FIG. 1C)) of the same compound?
A: Its value is “twice as high”.

Q: What about the “viral RNA expressed, more than the control” value (HIV-1; day 13 (FIG. 3C)) of the same compound?
A: The value was “up to 0.7 log10”.

Q: And the “viral RNA expressed, more than the control” value (HIV-1; from the 6th day, doses 10^-8 M, 10^-7 M and 10^-8 M as printed)?
A: Its value is 0.8 logn.

Q: What about the “HIV-1 RNA in culture supernatants, increase” value (HIV-1; untreated patient one, 10^-7 M, day 13 of culture) of the same compound?
A: Its value is 100%.

Q: And the “Log of proviral HIV DNA” value (HIV-1 proviral DNA; TT(+), V: 44.000, Day 3 of culture)?
A: The value was 2 ± 0.3 Log copies [cp]/10^6 cells.

Q: And the “Log of proviral HIV DNA” value (HIV-1 proviral DNA; TT(+), V: 44.000, Day 6 of culture)?
A: Its value is 0.3 ± 0.1 Log copies [cp]/10^6 cells.

Q: And the “Log of proviral HIV DNA” value (HIV-1 proviral DNA; TT(+), V: 250, Day 3 of culture)?
A: The value was 3 ± 0.2 Log copies [cp]/10^6 cells.

Q: What about the “Log of proviral HIV DNA” value (HIV-1 proviral DNA; TT(+), V: 250, Day 6 of culture) of the same compound?
A: Its value is 0.2 ± 0.1 Log copies [cp]/10^6 cells.

Q: And the “Log of proviral HIV DNA” value (HIV-1 proviral DNA; TT(−), V: 68.000, Day 3 of culture)?
A: Its value is 3.7 ± 0.2 Log copies [cp]/10^6 cells.

Q: What about the “Log of proviral HIV DNA” value (HIV-1 proviral DNA; TT(−), V: 68.000, Day 6 of culture) of the same compound?
A: Its value is 0.7 ± 0.1 Log copies [cp]/10^6 cells.
